This is an account of results in ChEMBL document CHEMBL4402510, “Caprazamycins: Promising lead structures acting on a novel antibacterial target MraY” (Eur J Med Chem, 2019).

Holding throughout (type): functional
Assay [1] relates to Enterococcus faecalis. Description: Antibacterial activity against Enterococcus faecalis ATCC 29212.
In another assay the test system is Haemophilus influenzae. Briefly: Antibacterial activity against Haemophilus influenzae ATCC 10211.
For assay [2], the system named is Enterococcus faecalis. Description: Antibacterial activity against Enterococcus faecalis SR7914 (VRE).
Assay [3] concerns Enterococcus faecalis. Briefly: Antibacterial activity against t Enterococcus faecalis after 20 hrs by NCCLS-based two-fold broth dilution method. The note with it: read-out: MIC. A general note: Broth dilution looks for growth in wells or tubes with falling amounts of substance.
Assay [4] relates to Enterococcus faecalis. Description: Antibacterial activity against t Enterococcus faecalis VRE after 20 hrs by NCCLS-based two-fold broth dilution method. The following applies: read-out: MIC.
For the next assay, the system named is Mycolicibacterium vaccae. Briefly: Antibacterial activity against Mycobacterium vaccae ATCC 15483.
Assay [5] concerns Mycolicibacterium smegmatis. Briefly: Antibacterial activity against Mycobacterium smegmatis ATCC 607.
In the next assay the test system is Mycolicibacterium phlei. Description: Antibacterial activity against Mycobacterium phlei.
The nature of assay [6]: Antibacterial activity against Mycobacterium avium subsp. avium ATCC 25291.
Assay [7] deals with Staphylococcus aureus. Briefly: Antibacterial activity against methicillin resistant Staphylococcus aureus MS16526.
For another assay, the system named is Bacillus subtilis. Briefly: Antibacterial activity against Bacillus subtilis PCI 219.
The subject of another assay is Streptococcus pneumoniae. Briefly: Antibacterial activity against Streptococcus pneumoniae PCI 602.
For assay [8], the system named is Mycobacterium tuberculosis. Description: Antibacterial activity against Mycobacterium tuberculosis JCM 6384.
In assay [9] the test system is Staphylococcus aureus. Description: Antibacterial activity against methicillin resistant Staphylococcus aureus No. 5.
The test system of assay [10] is Mycobacterium tuberculosis. Description: Antibacterial activity against Mycobacterium tuberculosis H37Rv.
The subject of assay [11] is Mycobacterium avium subsp. paratuberculosis. Description: Antibacterial activity against Mycobacterium avium subsp. paratuberculosis ATCC 43015.
Assay [12] concerns Staphylococcus aureus. Description: Antibacterial activity against Staphylococcus aureus FDA 209P.
The next assay deals with Escherichia coli. Description: Antibacterial activity against Escherichia coli K-12.
The subject of assay [13] is Mycobacterium tuberculosis. Description: Antibacterial activity against Mycobacterium tuberculosis Kurono.

≈ marks a conversion by molar mass, not a printed value. Where only a bound is given, the exact number is not on record here.

Turning to `CCCCCCCCCCCCCCCC(=O)OC[C@@H]1[C@H](C(N)=O)[C@@H]([C@H]2O[C@@H](n3ccc(=O)[nH]c3=O)[C@H](O)[C@@H]2O)ON1CCCN`, the MIC in the assay with Enterococcus faecalis [1] was determined as 16 µg/mL (≈ 24.5 µM); in the assay on Haemophilus influenzae, 0.25 µg/mL (≈ 0.382 µM); in the assay on Enterococcus faecalis [2], 8 µg/mL (≈ 12.2 µM).

With `CCCCCCCCCCCCCCCC(=O)OC[C@@H]1[C@H](C(=O)N(C)C)[C@@H]([C@H]2O[C@@H](n3ccc(=O)[nH]c3=O)[C@H](O)[C@@H]2O)ON1CCCN`, the MIC in the assay on Enterococcus faecalis [1] is 16 µg/mL (≈ 23.5 µM); against Haemophilus influenzae it was 0.5 µg/mL (≈ 0.733 µM); against Enterococcus faecalis [2] it was 4 µg/mL (≈ 5.87 µM).

Take `CCCCCCCCCCCC(=O)N[C@@H]1CCN[C@@H]([C@H](O[C@@H]2O[C@H](CN)[C@@H](O)[C@H]2O)[C@H]2O[C@@H](n3ccc(=O)[nH]c3=O)[C@H](O)[C@@H]2O)C1`: the MIC with Enterococcus faecalis [1], with Enterococcus faecalis [3], in the assay on Enterococcus faecalis [4] and in the assay with Enterococcus faecalis [2] was 4 µg/mL (≈ 6.1 µM) in each case.

Consider `CCCCCCCCCCCCCCCNC(=O)C1=CCN(C)[C@@H]([C@H](O[C@@H]2O[C@H](CN)[C@@H](O)[C@H]2O)[C@H]2O[C@@H](n3ccc(=O)[nH]c3=O)[C@H](O)[C@@H]2O)C(=O)N1C`, for which the MIC against Mycolicibacterium vaccae is 6.25 µg/mL (≈ 8.15 µM); in assay [5] it was 1.56 µg/mL (≈ 2.03 µM); against Mycolicibacterium phlei, 6.25 µg/mL (≈ 8.15 µM); in assay [6] it was 3.13 µg/mL (≈ 4.08 µM); in the assay on Staphylococcus aureus [7], 50 µg/mL (≈ 65.2 µM); with Bacillus subtilis, 1.56 µg/mL (≈ 2.03 µM). Further, the MIC against Streptococcus pneumoniae is 3.13 µg/mL (≈ 4.08 µM); in assay [8] it was 1.56 µg/mL (≈ 2.03 µM); against Staphylococcus aureus [9], > 100 µg/mL; in [10] it was 1.56 µg/mL (≈ 2.03 µM); in assay [11], 0.78 µg/mL (≈ 1.02 µM); against Staphylococcus aureus [12] it was < 0.2 µg/mL. Besides, the MIC (against Escherichia coli; in assay [13]) was 1.56 µg/mL (≈ 2.03 µM) throughout.

On to `CCCCc1ccc(NC(=O)C2=CCN[C@@H]([C@H](O[C@@H]3O[C@H](CN)[C@@H](O)[C@H]3O)[C@H]3O[C@@H](n4ccc(=O)[nH]c4=O)[C@H](O)[C@@H]3O)C(=O)N2C)cc1`, for which the MIC is 50 µg/mL (≈ 74.1 µM) against Mycolicibacterium vaccae; 6.25 µg/mL (≈ 9.26 µM) in [5]; 12.5 µg/mL (≈ 18.5 µM) with Mycolicibacterium phlei; 1.56 µg/mL (≈ 2.31 µM) in assay [6]; 100 µg/mL (≈ 148 µM) against Staphylococcus aureus [7]; 3.13 µg/mL (≈ 4.64 µM) against Bacillus subtilis. Besides, the MIC against Streptococcus pneumoniae came to 50 µg/mL (≈ 74.1 µM); in [8], 0.2 µg/mL (≈ 0.296 µM); in the assay on Staphylococcus aureus [9], 100 µg/mL (≈ 148 µM); in assay [10], 1.56 µg/mL (≈ 2.31 µM); in [11], 0.39 µg/mL (≈ 0.578 µM); against Staphylococcus aureus [12], 25 µg/mL (≈ 37.1 µM). For the same molecule, the values for the MIC (against Escherichia coli; in [13]) were > 100 µg/mL and 1.56 µg/mL (≈ 2.31 µM), respectively.

For `CCCCCCNC(=O)C1=CCN(C)[C@@H]([C@H](O[C@@H]2O[C@H](CN)[C@@H](O)[C@H]2O)[C@H]2O[C@@H](n3ccc(=O)[nH]c3=O)[C@H](O)[C@@H]2O)C(=O)N1C`, the MIC was 100 µg/mL (≈ 156 µM) in the assay with Mycolicibacterium vaccae; 50 µg/mL (≈ 78 µM) in assay [5]; 100 µg/mL (≈ 156 µM) against Mycolicibacterium phlei; 12.5 µg/mL (≈ 19.5 µM) in assay [6]; > 100 µg/mL against Staphylococcus aureus [7]; 25 µg/mL (≈ 39 µM) against Bacillus subtilis. Besides, the MIC is > 100 µg/mL against Streptococcus pneumoniae; 1.56 µg/mL (≈ 2.43 µM) in assay [8]; > 100 µg/mL with Staphylococcus aureus [9]; 3.16 µg/mL (≈ 4.93 µM) in assay [10]; 0.78 µg/mL (≈ 1.22 µM) in assay [11]; > 100 µg/mL in the assay with Staphylococcus aureus [12]. Moreover, the MIC with Escherichia coli is > 100 µg/mL; in [13], 1.56 µg/mL (≈ 2.43 µM).

Turning to `CN1C(=O)[C@H]([C@H](O[C@@H]2O[C@H](CN)[C@@H](O)[C@H]2O)[C@H]2O[C@@H](n3ccc(=O)[nH]c3=O)[C@H](O)[C@@H]2O)N(C)CC=C1C(=O)NC1CCCCCCCCCCC1`, the MIC was 25 µg/mL (≈ 34.6 µM) with Mycolicibacterium vaccae; 3.13 µg/mL (≈ 4.33 µM) in [5]; 6.25 µg/mL (≈ 8.65 µM) with Mycolicibacterium phlei; 3.13 µg/mL (≈ 4.33 µM) in assay [6]; > 100 µg/mL in the assay on Staphylococcus aureus [7]; 1.56 µg/mL (≈ 2.16 µM) in the assay on Bacillus subtilis. The MIC in the assay with Streptococcus pneumoniae was > 100 µg/mL; in [8] it was < 0.05 µg/mL; against Staphylococcus aureus [9], > 100 µg/mL; in assay [10], 1.56 µg/mL (≈ 2.16 µM); in assay [11], 0.05 µg/mL (≈ 0.0692 µM); in the assay with Staphylococcus aureus [12], 100 µg/mL (≈ 138 µM). Also, the MIC in the assay with Escherichia coli is > 100 µg/mL; in assay [13] it was 1.56 µg/mL (≈ 2.16 µM).
